{
  "source": "patent US6139840A",
  "about": "“Methods of eliciting an antibody response using flea protease proteins and homologs thereof” (priority 1997, dated 2000)",
  "key": {"[1]": {"test_system": "soluble fed and unfed flea midgut preparations", "type": "biochemical", "settings": "substrate BAPNA", "from_the_text": "Pellets from the centrifugation step were also collected and resuspended for analysis. Also prepared were whole flea lysates."}, "[2]": {"test_system": "adult fleas", "assay": "Flea feeding system: viability and fecundity of fleas fed blood containing protease inhibitors", "type": "in vivo", "settings": "for Adult Survival Female / Adult Survival Male / Adult Survival Total / Fecundity Days 1-7: percent of corresponding control group", "protocol": "This Example evaluates the effect of a number of protease inhibitors on flea viability and fecundity in a flea feeding system as described by Wade et al. ibid.\nProtease inhibitor compounds were tested in groups of 3 to 6 including appropriate control groups. Inhibitors were not tested in groups of common inhibition types. Rather, they were tested in groups based on the diluent needed to dissolve them. (AEBSF, aprotinin, bestatin, leupeptin, phosphoramidon, soybean trypsin inhibitor and soybean trypsin/chymotrypsin inhibitor were dissolved in water; E-64 and pepstatin were dissolved in ethanol). This reduced the number of control (diluent only) groups needed within a particular assay. Inhibitor concentrations were chosen such that the lower concentration used was within the range recommended by the supplier for that inhibitor. The higher concentration was typically 10 times above the lower concentration and was used to look for dose response.\nThe general protocol for all of the assays was as follows: Approximately 2000 newly emerged adult fleas were placed in feeding chambers to feed on normal blood for about 24 to 48 hr. The fleas were prefed for two reasons: The first was to be certain that only fleas that would feed in the feeding system were used in the comparative study.\nThe prefed fleas were placed in \"minifeeder\" feeding chambers at a ratio of about 80 female fleas to about 20 male fleas for a total of about 100 fleas per chamber. Actual total number of fleas per chamber varied from about 90 to 125 fleas. […] Three chambers were prepared for each experimental and control group. A fresh blood meal containing the appropriate inhibitor in 3 ml total volume was placed on each chamber daily through the 7 day extent of an assay.\nOn days 3, 5, and 7 of the assay, surviving adult fleas were transferred to clean chambers. The contents of the original chambers were dissolved in about 40 ml of PBS (phosphate-buffered saline) in a 50 ml Falcon tube. The contents of a given tube were then filtered through a preweighed #1 Whatman filter disk inserted into a vacuum filter. The 50 ml tube and the filter funnel were rinsed with distilled water which was then passed through the filter. Once the chamber contents had been filtered, dead adult fleas were removed from the filter paper and placed in a labelled tube so that they could be counted and sexed. The filter paper was then placed into a preweighed 12×75 polypropylene tube and dried in the SpeedVac for 2.5 hr with the heater on. After drying the filter paper was weighed. The weight of the filter paper and tube was subtracted to obtain the dry weight of the eggs and this value was converted to an estimated number of eggs using the formula y=41384.361x+162.37, where x=dry weight of eggs.\nOn day 7, adult fleas that had survived the study were frozen, counted and sexed. The numbers were added to the number of male and female fleas that had died during the assay to verify the number of male and female fleas in each chamber at the start of the study.\nFemale, male and total adult flea survival were calculated for all experimental and control groups on days 3, 5, and 7 of each assay. Additionally, the number of eggs per surviving female was calculated on days 3, 5 and 7. Female fleas found dead on a given collection date were included in the total number of egg-laying females for the days between that date and the previous collection date, providing a conservative estimate of fecundity. Fecundity values were averaged for the three collection dates to obtain an average for each group over 7 days.\nResults of these studies are presented below in Table 1 and FIG. 6 through FIG. 9. All survival and fecundity values are presented below as a percent of control value."}, "[3]": {"settings": "at the concentrations tested in blood meal"}},
  "data": [
    {"compound": "O=S(=O)(F)Cc1ccccc1", "note": "[PMSF, phenylmethane-7-sulfonyl fluoride]", "values": [
      {"measurement": "inhibition of ability to cleave BAPNA (proteolytic activity)", "setting": "[1]", "value": "about 50%"}
    ]},
    {"compound": "Aprotinin", "values": [
      {"measurement": "inhibition of ability to cleave BAPNA (proteolytic activity)", "setting": "[1]", "value": "~100", "unit": "%"},
      {"measurement": "Adult Survival Female", "setting": "[2]; 2 μg/ml in blood meal", "value": 103.2, "unit": "%"},
      {"measurement": "Adult Survival Male", "setting": "[2]; 2 μg/ml in blood meal", "value": 104.9, "unit": "%"},
      {"measurement": "Adult Survival Total", "setting": "[2]; 2 μg/ml in blood meal", "value": 103.3, "unit": "%"},
      {"measurement": "Fecundity Days 1-7", "setting": "[2]; 2 μg/ml in blood meal", "value": 83.2, "unit": "%"},
      {"measurement": "Adult Survival Female", "setting": "[2]; 20 μg/ml in blood meal", "value": 100.0, "unit": "%"},
      {"measurement": "Adult Survival Male", "setting": "[2]; 20 μg/ml in blood meal", "value": 101.7, "unit": "%"},
      {"measurement": "Adult Survival Total", "setting": "[2]; 20 μg/ml in blood meal", "value": 99.9, "unit": "%"},
      {"measurement": "Fecundity Days 1-7", "setting": "[2]; 20 μg/ml in blood meal", "value": 84.2, "unit": "%"},
      {"measurement": "effect on adult viability", "setting": "[2]; [3]", "value": "no significant effect"},
      {"measurement": "effect on fecundity", "setting": "[2]; [3]", "value": "no significant effect"}
    ]}
  ]
}
